Entries after “also recorded” stand apart in the source; their conditions may differ.
Experiments:
[1] = system: Bacillus subtilis (spore); experiment: Portable system (blood storage container, diazeniumdiolate plus acidic buffer) sterilization of stainless steel strips; assay type: cell-based, B. subtilis (endosporulated); details: Fifteen Minute Sterilization Cycle; stainless steel strip
Description: (§1) Similar to Example 1, a portable system is devised using blood storage containers and other laboratory items. In this construct, a blood storage container (Nexell, Irvine, Calif.; Lifecell PL732 plastic tissue culture flask) serves as the sterilization chamber. It has multiple ports, is easily attached to tubing or other chambers, and is easily cut and heat sealed for insertion and removal of contaminated/sterilized samples. The heat seal is strong and holds well at pressure, even though 1 ATM of pressure is used experimentally. Two 60 ml syringes connected to each other and a line of tubing by a three-way stopcock are employed to mix acidic buffer in one syringe with NO-releasing diazeniumdiolate in the other syringe. The tubing is connected to the blood container/sterilization chamber.
(§2) The stopcock is turned so that the acidic buffer can be added to the syringe containing the diazeniumdiolate. The valve is immediately closed to the buffer syringe and opened to the sterilization chamber. The 300 cc sterilization chamber inflates in about 15 seconds. Experiments are performed as described above, except that the devised system is used instead of the pressure vessel.
(§3) The test organisms are cultured overnight in BHI. The cultures contained at least 10^8 CFU/ml (100-fold greater than FDA testing guidelines) based on standardized ABS595 curves for each organism. […]

[2] = system: Bacillus stearothemophilus spores (ATCC 7953); experiment: Spore studies in lumens (wire biological indicators, resistometer); assay type: cell-based; details: 5 min, 23° C., NO then air
Method: The ability of the nitrogen oxide gases to penetrate an inner open space or cavity within a tube (i.e., a lumen) and inactivate spores in the lumen is evaluated. The spores used are those that are most resistant to the nitrogen oxide gases.
The following configuration of lumens are tested:
(a) 17″ stainless (SS) tubes having a 2.5 mm inner diameter (I.D.), bent in “U” shape
(b) 60″ polyethylene (PE) tube having a 4.5 mm ID, coiled and in Tyvek pouch
(c) 60″ PE tube having a 4.5 mm ID and a 1.5 mm outer diameter (O.D.) PEEK tube inside, coiled and in Tyvek pouch
Wire biological indicators are inoculated with 10^6 Bacillus stearothemophilus spores (ATCC 7953), (Raven Lot 3W67583) and placed at the center point of the tube in each of these configurations. The coiled polyethylene tubes were then heat-sealed in a TYVEK sterilization pouch.
Separately, each of the lumen samples are tested. The stainless steel tube (triplicate samples: SS-1, SS-2, and SS-3), the polyethylene tube, and the polyethylene tube with the PEEK catheter were each placed in a resistometer and exposed to the following gas cycle for 5 minutes at 23° C. This gas cycle is defined as follows: […]
The sterilization chamber/resistometer is evacuated and held at vacuum for 2 minutes. NO gas is then added to the sterilization chamber until the vacuum is decreased by 1″Hg. This condition is maintained for 2 minutes. Are is then added until the chamber reaches atmospheric pressure and the condition is held for 5 minutes.

Bacillus subtilis [3] = experiment: Portable system (blood storage container, diazeniumdiolate plus acidic buffer) sterilization of stainless steel strips; assay type: cell-based, B. subtilis (vegetative); details: Fifteen Minute Sterilization Cycle; stainless steel strip
Description: as §1, §2, §3

Klebsiella pneumoniae = experiment: Pressure vessel NO sterilization of dipped stainless steel strips; assay type: cell-based, Klebsiella pneumoniae (strain 21991); details: Five Minute Sterilization Cycle, NO gas at atmospheric pressure
Description: (§4) A glass pressure vessel is connected to a scrubbed NO gas tank source. The pressure vessel is purged five times with Argon gas to eliminate atmospheric oxygen (preventing formation of NO2•) and an additional three purges of NO are used to ensure a pure NO atmosphere and consistent results of bactericidal activity. To test the sterilization method: Bacillus subtillis var niger 9372 is used (after obtaining >80% endospore formation; a standard for ethylene oxide and autoclave test sterilization), as well as organisms commonly found on the epidermis: Staphylococcus aureus (strain 21769) and Staphylococcus epidermides (strain 21977), and the enteric organisms: Klebsiella pneumoniae (strain 21991) and Serratia marcesens (strain 21140). This particular Serratia strain has been found in previous studies to be one of the most resistant bacteria to the bactericidal effects of NO in culture. See, Raulli R et al., Recent Res Devel Microbiol 6: 177-183, 2002, the entire contents of which is incorporated by reference herein.
(§5) The organisms are cultured overnight in brain heart infusion BHI. […]
(§6) The sealed vessel is carefully opened in a laminar flow hood after all the NO had been purged with Argon. […] The samples are observed (digitally photographed) 24 hrs later, placed back in the waterbath and are measured for absorbance 72 hrs later. […]

[4] = system: spores (Biological Indicator manufactured by Raven); experiment: Humidity effects on spores (Raven Biological Indicator in Tyvek sachets, 300 ml glass vessels); assay type: cell-based; details: 5% nitrogen oxide, Diluent Air
Method: This Example illustrates the effects of humidity on the sterilization of spores using both NO and NO2/N2O4 as sterilizing gases. Tests are conducted in 300 ml glass vessels.
The vessels are allowed to stand for 30 minutes, Two Tyvek sachets, each containing a Biological Indicator manufactured by Raven (product number 3367771 3-6100ST) are placed in each vessel. The vessels are purged as follows: The vessel is evacuated to 8″Hg absolute. The Vessel is re-filled with air to atmospheric pressure. Evacuation/filling is repeated two more times. The vessel is evacuated to 8″Hg absolute. Sterilizing gases are introduced into the vessel. Compressed air (9% Relative Humidity) is added until the vessel reaches atmospheric pressure. The sachets are allowed to remain in the sterilizing environments for either five or ten 10 minutes before being removed and the BI is cultured in 4 milliliters of Tryptic Soy Broth for 14 days at 55-60° C.

[5] = system: Staphylococcus epidermides; experiment: Portable system (blood storage container, diazeniumdiolate plus acidic buffer) sterilization of stainless steel strips; assay type: cell-based, S. epidermides; details: Fifteen Minute Sterilization Cycle; stainless steel strip
Description: as §1, §2, §3

[6] = system: Staphylococcus epidermides; experiment: Pressure vessel NO sterilization of dipped stainless steel strips; assay type: cell-based, Staphylococcus epidermides (strain 21977); details: Five Minute Sterilization Cycle, NO gas at atmospheric pressure
Description: as §4, §5, §6

Serratia marcesens [7] = experiment: Portable system (blood storage container, diazeniumdiolate plus acidic buffer) sterilization of stainless steel strips; assay type: cell-based, S. marcesens; details: Fifteen Minute Sterilization Cycle; stainless steel strip
Description: as §1, §2, §3

[8] = system: sporulated B. subtilis var. niger; experiment: Sterilization of contaminated stainless steel strips with varying quantities of delivered NO; assay type: cell-based; details: 5%, 2.5% and 1% NO, five minutes, culture in LB 48 hours then plating
Description: A blood storage container (Nexell, Irvine, Calif.; Lifecell PL732 plastic tissue culture flask) is used as the sterilization chamber. Strips of stainless steel are dipped in 10^6 CFU/ml sporulated B. subtilis var. niger (as determined by ABS595 standardization curves). The strips are allowed to air dry, placed in the sterilization chamber, and then the sterilization chamber is heat sealed. The sterilization chamber is evacuated using a syringe and controlling air flow with the sterilization chamber valves. A known quantity of air is added to the vessel using a graduated syringe.
An NO-generating donor compound is placed in a 7 cc gas generation chamber. The gas generation chamber is attached to the storage container through luer lock connectors. The liquid activator, 3.0N HCl is added to the gas generation chamber and the generated gas is allowed to flow into the sterilization chamber. After a brief generation period, the gas is sealed in the sterilization chamber using a compression valve.
Varying quantities of NO gas, namely 10%, 5%, 2.5% and 1% NO, are tested for their efficacy in the sterilization chamber. The quantity (%) of NO gas generated and added to the sterilization chamber is calculated from the number of moles of NO required to be generated to result in the desired percentage of NO. […]

Serratia marcesens [9] = experiment: Pressure vessel NO sterilization of dipped stainless steel strips; assay type: cell-based, Serratia marcesens (strain 21140); details: Five Minute Sterilization Cycle, NO gas at atmospheric pressure
Description: as §4, §5, §6

Staphylococcus aureus = experiment: as above; assay type: cell-based, Staphylococcus aureus (strain 21769); details: Five Minute Sterilization Cycle, NO gas at atmospheric pressure
Description: as §4, §5, §6

Bacillus subtilis [10] = experiment: as above; assay type: cell-based, Bacillus subtillis var niger 9372; details: Five Minute Sterilization Cycle, NO gas at atmospheric pressure
Description: as §4, §5, §6

cocktail of bacteria = experiment: Humidity effects on live bacteria, sealed and unsealed dry samples; assay type: cell-based; details: 15 min Sterilization cycle, 1 atmosphere
Description: This Example tests several humidifying paradigms and the ability to sterilize through a gas sterilization seal pouch. A cocktail of bacteria is used, grown to about 10^8 CFU/ml and mixed in equal volume. Stainless steel strips are dipped, allowed to dry, and subject to one of three methods: A, B and C. Method A samples are wrapped in a moist Kimwipe. Method B samples are left dry. Method C samples are dried and sealed in a V. Mueller™ Dual Peel Seal Pouch, which is designed for gas and autoclave sterilizations. Samples from methods B and C are placed in the sterilization chamber with a moist Kimwipe. Placement in the chamber is done so as to insure maximal separation of the Kimwipe and the sample(s). The chamber is re-sealed carefully so as not to disturb the positioning of the samples relative to the Kimwipe. Each sample is exposed to a 15 minute sterilization cycle at 1 atmosphere, removed under sterile conditions, and the samples are placed in BHI media as described above. Experimental samples are exposed to NO gas while control samples are handled identically, except that the chamber is gassed with nitrogen. All controls reached greater than 10^6 total CFU/ml in 24 hrs as determined by ABS595 standardization curves.

[11] = system: bacillus stearothemophilus spores; experiment: Spore studies in NO and NO2 (BI disks in TYVEK pouches, glass vessel); assay type: cell-based; details: Exp Time 10 min
Method: The experiments are conducted in glass vessels in which gases can be metered in exact amounts. The tests were conducted using biological indicators made of stainless steel disks inoculated with 10^6 bacillus stearothemophilus spores. The BI disks are heat-sealed in individual TYVEK sterilization pouches and placed in a glass vessel. The vessel is filled with various mixtures of gases following specific protocols for the order and timing of gas introduction.
In one protocol, the glass vessel is evacuated to 3″ Hg absolute. Either NO or NO2, as the sterilant gas, is added in an amount that corresponds to a 5% concentration (by volume) when the vessel is completely filled with sterilant gas and diluent gas. After 5 minutes, either air or nitrogen was added to the vessel until atmospheric pressure is reached. The BI is exposed to the air or nitrogen for 10 minutes. Thereafter, the BIs, in their pouches, are removed from the vessel and taken to a microbiological hood. The biological indicators are removed from the pouches and placed in tubes with sterile tryptic soy broth, incubated at from about 55 to about 60° C., and monitored for growth.

[12] = system: bacterial cocktail containing B. subtilis, S. marcesens, and S. epidermides; experiment: Sterilization of medical materials (tubing, needle); assay type: cell-based; details: 15 min Sterilization Cycle
Method: In this Example, the sterilization of medically relevant materials, such as needles and plastic tubing, is tested. Teflon (⅛′ ID), polyethylene (1.77 mm ID), vinyl (0.5 mm ID) tubing and a 30 gauge disposable needle are dipped in a bacterial cocktail containing B. subtilis, S. marcesens, and S. epidermides at about 10^8 total CFU/ml The samples are placed in the sterilization chamber and sealed. In each case, the lumen (the inner open space or cavity within the tubing) of the tubing or the needle contained at least some visually confirmed inoculum. […] The controls for each material reached at least 10^6 total CFU/ml in 24 hrs as determined by ABS595 standardization curves.

[N]=O [NO, nitric oxide]
trials Killed [1]: 2/2 | spore condition (Dead/Live) after 14 days of incubation ([2]; (a) SS-1, 17″ stainless tube 2.5 mm I.D.): Dead | spore condition (Dead/Live) after 14 days of incubation ([2]; (a) SS-2, 17″ stainless tube 2.5 mm I.D.): Dead | spore condition (Dead/Live) after 14 days of incubation ([2]; (a) SS-3, 17″ stainless tube 2.5 mm I.D.): Dead | spore condition (Dead/Live) after 14 days of incubation ([2]; (b) PE Sheath, 60″ polyethylene tube 4.5 mm ID in Tyvek pouch): Dead | spore condition (Dead/Live) after 14 days of incubation ([2]; (c) PE Sheath with Catheter (PEEK tube inside) in Tyvek pouch): Dead | trials Killed (Bacillus subtilis [3]): 2/2 | trials showing no bacterial growth (Killed) (Klebsiella pneumoniae): 3/3 Killed | Spore Condition in 14 Days ([4]; Exposure 5 Minutes, Dry): Alive | Spore Condition in 14 Days ([4]; Exposure 5 Minutes, Humid): Dead | Spore Condition in 14 Days ([4]; Exposure 10 Minutes, Dry): Alive | Spore Condition in 14 Days ([4]; Exposure 10 Minutes, Humid): Dead | trials Killed [5]: 3/3 Killed | trials showing no bacterial growth (Killed) [6]: 3/3 Killed | trials Killed (Serratia marcesens [7]): 3/3 Killed | killing 10^6 CFU/ml sporulated B. subtilis var. niger [8]: effective at killing | trials showing no bacterial growth (Killed) (Serratia marcesens [9]): 3/3 Killed | trials showing no bacterial growth (Killed) (Staphylococcus aureus): 3/3 Killed | trials showing no bacterial growth (Killed) (Bacillus subtilis [10]): 3/3 Killed | trials Killed (cocktail of bacteria; Method A, sample wrapped in Moist Kimwipe): Killed | trials Killed (cocktail of bacteria; Method B, Dry sample): sterilized dry samples; also recorded: Killed | trials Killed (cocktail of bacteria; Method C, Dry, Sealed in Dual Peel Seal Pouch): Killed | spore condition (Dead/Live) ([11]; 5% in Air with Humidity Chip): Dead | trials Killed ([12]; Disposable Needle 30 gauge): 2/2 Killed | trials Killed ([12]; Polyethylene Tubing 1.77 mm ID): 2/2 Killed | trials Killed ([12]; Teflon Tubing 1/8′ ID): 2/2 Killed | trials Killed ([12]; Vinyl Tubing 0.5 mm ID): 2/2 Killed

[O]N=O [NO2, nitrogen dioxide]
spore condition (Dead/Live) ([11]; 5% in Air with Humidity Chip): Dead | spore condition (Dead/Live) ([11]; 5% in N2 with Humidity Chip): Dead

Reference: patent publication US9180217B2, “Sterilization system and device” (priority 2004, dated 2015)
